Data on five molecules can be found in ChEMBL document CHEMBL1201862, “PubChem BioAssay data set” (2004).

Molecules are shown by their SMILES. Calls of active or inactive are those of the source. Positions of bridges follow the written chain, without caps; N, C: chain ends. Non-standard residues stand in square brackets, D forms with d. Residues, ends and D or L forms follow the SMILES beside them. *: point of attachment. X1 = CCC(C)C(N)C1=NC(C(=O)*)CS1; dOrn = NCCC[C@@H](N)C(=O)O

The test system of assay [1] is HEK293. In words: cells. The assay is classed as functional, cell-based. The note with it: Homo sapiens.
Assay [2] concerns the target Nuclear receptor subfamily 0 group B member 1 (Homo sapiens, UniProt P51843). In words: Luminescence-based cell-based high throughput dose response assay for inhibitors of the orphan nuclear receptor subfamily 0, group B, member 1 (DAX1; NR0B1). [Related pubchem assays (depositor defined):AID504766, AID504790]. It counts as functional.
Assay [3] deals with HEK293. Briefly: cells. The conditions noted are these: Homo sapiens.
The test system of assay [4] is HEK293. Briefly: cells. The note with it: Homo sapiens. The source holds these as a separate data set.
Another assay concerns Jurkat. In words: blockers of NF-kB activation in T cells – Jurkat, luciferase reporter, luminescence, B- and T-cell, dose response (AID 489004).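 Also: NF-kB luciferase reporter Jurkat cells stimulated with PMA plus ionomycin.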 It counts as functional, cell-based. The conditions noted are these: Homo sapiens. For orientation: In a reporter assay the amount or activity of a reporter protein is the signal.
A short description of assay [5]: HEK-293T viability loss, compound-treated – cell-based, uHTS hits, cytotoxicity control for B/T-cell NF-kB inhibitor project, dose response (AID 489019).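 Also: IC50 reflects cytotoxicity as loss of cell viability.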 It counts as functional.
The target in the next assay is T1, Protein RecA (Mycobacterium tuberculosis, UniProt P9WHJ3).
T1 sequence (P9WHJ3 whole entry): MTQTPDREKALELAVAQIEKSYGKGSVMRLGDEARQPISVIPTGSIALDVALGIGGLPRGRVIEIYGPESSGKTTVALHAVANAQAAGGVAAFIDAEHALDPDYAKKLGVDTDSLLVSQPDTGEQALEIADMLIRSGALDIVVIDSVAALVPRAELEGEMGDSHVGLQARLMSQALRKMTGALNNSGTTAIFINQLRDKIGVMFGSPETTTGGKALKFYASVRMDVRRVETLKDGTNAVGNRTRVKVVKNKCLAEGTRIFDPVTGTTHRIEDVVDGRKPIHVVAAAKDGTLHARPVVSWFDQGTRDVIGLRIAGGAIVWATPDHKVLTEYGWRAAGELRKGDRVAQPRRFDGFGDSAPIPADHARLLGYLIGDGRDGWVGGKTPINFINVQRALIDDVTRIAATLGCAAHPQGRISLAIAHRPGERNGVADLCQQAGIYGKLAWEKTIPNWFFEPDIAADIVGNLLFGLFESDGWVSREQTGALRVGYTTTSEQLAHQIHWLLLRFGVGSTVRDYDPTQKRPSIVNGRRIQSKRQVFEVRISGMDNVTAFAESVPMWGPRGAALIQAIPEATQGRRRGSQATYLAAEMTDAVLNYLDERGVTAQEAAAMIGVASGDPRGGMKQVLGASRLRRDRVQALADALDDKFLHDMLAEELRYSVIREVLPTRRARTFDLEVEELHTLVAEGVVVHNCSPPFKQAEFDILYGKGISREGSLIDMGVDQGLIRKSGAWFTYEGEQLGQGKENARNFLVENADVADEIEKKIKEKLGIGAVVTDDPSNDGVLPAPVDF
In words: Fluorescence Cell-Free Homogeneous Dose Retest to Identify Inhibitors of RecA-Intein Splicing Activity. [Related pubchem assays (depositor defined):AID2097, AID2223, AID489010, AID492950]. The assay is classed as functional.

The target of assay [6] is T2, Apoptotic protease-activating factor 1 (Homo sapiens, UniProt O14727).
T2 sequence (O14727 whole entry): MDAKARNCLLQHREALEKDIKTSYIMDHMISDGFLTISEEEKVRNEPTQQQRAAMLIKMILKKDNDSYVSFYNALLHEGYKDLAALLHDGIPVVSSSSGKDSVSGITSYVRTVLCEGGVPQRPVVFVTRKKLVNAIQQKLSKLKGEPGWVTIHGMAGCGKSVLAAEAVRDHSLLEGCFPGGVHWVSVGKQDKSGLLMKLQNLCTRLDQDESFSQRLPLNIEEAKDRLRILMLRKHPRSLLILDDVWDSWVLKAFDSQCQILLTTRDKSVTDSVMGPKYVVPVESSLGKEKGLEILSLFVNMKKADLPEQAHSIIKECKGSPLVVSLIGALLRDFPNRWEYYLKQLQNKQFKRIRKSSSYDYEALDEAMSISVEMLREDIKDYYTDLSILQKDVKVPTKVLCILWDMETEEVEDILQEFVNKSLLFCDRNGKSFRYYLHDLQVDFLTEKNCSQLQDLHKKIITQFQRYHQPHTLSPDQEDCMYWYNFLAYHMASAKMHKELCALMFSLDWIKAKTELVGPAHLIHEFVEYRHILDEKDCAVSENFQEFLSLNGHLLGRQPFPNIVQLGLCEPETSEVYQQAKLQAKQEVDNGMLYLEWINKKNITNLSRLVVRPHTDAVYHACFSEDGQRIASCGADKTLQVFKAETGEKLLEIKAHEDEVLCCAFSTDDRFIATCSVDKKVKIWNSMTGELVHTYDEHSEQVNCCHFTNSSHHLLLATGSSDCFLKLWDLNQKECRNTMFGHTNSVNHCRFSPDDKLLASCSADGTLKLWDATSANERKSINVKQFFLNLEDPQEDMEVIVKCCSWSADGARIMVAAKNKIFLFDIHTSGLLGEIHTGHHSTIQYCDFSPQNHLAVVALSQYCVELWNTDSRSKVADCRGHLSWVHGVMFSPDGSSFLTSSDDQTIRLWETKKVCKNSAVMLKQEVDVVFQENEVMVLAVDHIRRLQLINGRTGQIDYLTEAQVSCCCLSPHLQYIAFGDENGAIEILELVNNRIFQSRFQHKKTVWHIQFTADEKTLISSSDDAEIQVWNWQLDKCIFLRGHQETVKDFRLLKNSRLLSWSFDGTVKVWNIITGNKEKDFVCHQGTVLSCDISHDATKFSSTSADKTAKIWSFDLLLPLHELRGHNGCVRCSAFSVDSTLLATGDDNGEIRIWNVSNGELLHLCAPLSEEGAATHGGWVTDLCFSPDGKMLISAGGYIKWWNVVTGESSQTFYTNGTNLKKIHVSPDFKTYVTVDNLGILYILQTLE
It counts as functional.

Assay [7] addresses T3, Microphthalmia-associated transcription factor (Homo sapiens, UniProt O75030).
T3 sequence (O75030 whole entry): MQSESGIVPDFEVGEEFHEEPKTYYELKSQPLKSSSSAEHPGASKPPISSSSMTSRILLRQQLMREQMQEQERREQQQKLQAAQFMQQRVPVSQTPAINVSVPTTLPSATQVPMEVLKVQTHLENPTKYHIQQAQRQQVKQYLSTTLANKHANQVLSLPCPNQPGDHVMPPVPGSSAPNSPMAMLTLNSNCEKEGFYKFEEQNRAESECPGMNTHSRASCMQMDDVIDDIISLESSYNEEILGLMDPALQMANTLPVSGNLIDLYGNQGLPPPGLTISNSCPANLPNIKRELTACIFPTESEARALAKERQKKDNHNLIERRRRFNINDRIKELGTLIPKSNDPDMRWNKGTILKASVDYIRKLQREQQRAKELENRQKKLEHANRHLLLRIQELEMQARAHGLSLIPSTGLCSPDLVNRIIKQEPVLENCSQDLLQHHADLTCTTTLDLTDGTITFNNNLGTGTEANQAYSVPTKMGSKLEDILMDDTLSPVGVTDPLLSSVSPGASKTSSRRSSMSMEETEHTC
In words: reducers of TRPM1 reporter luminescence, concentration series – cell-based, SK-MEL-5, cherry-picked, set 3, MITF inhibitor project, dose response (AID 493073).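 Also: SK-MEL-5 melanoma cells with luciferase driven by the MITF target TRPM1 promoter.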 It counts as functional.

In another assay the test system is INS1. In words: INS-1E survival protection against cytokine death – cell-based, luminescence, retest, dose response (AID 449756).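 Also: cell death triggered by IL-1 beta plus TNF-alpha plus IFN-gamma mixture; protective hits raise ATP signal compared with cytokine alone wells.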 The assay is classed as functional. The conditions noted are these: Rattus norvegicus.
Assay [8] can be described thus: Luminescence Cell-Based Dose Retest to Confirm Inhibitors of Cancer Stem Cells. [Related pubchem assays (depositor defined):AID2717, AID2721]. The assay is classed as functional. The note with it: Homo sapiens.
In assay [9] the target is T4, Replicative DNA helicase DnaB (Mycobacterium tuberculosis, UniProt P9WMR3).
T4 sequence (P9WMR3 whole entry): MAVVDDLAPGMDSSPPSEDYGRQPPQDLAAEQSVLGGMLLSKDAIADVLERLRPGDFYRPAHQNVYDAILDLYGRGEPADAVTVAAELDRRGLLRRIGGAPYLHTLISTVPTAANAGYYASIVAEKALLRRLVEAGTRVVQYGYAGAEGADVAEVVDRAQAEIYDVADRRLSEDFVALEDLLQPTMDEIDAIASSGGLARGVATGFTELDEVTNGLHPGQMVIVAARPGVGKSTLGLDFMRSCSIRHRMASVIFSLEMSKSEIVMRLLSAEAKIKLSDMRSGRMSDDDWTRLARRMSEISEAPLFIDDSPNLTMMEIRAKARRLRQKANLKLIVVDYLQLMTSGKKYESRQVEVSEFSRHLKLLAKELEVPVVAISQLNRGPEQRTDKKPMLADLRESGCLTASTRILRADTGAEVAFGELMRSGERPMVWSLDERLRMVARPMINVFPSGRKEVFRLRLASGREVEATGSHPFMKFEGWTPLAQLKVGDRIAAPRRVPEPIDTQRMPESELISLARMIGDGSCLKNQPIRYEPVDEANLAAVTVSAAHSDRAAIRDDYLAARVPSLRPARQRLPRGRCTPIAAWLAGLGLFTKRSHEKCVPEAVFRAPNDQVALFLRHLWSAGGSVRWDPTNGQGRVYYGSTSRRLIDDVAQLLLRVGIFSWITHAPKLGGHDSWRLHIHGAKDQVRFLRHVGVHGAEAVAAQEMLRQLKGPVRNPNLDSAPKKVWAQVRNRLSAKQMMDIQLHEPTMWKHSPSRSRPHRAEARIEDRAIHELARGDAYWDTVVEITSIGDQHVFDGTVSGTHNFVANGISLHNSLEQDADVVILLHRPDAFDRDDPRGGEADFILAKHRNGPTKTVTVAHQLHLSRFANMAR
In words: DnaB intein splicing inhibitors, dose response, biochemical, cell-free fluorescence (AID 449749). The assay is classed as functional.

For another assay, the system named is A-375. Briefly: MITF: Counter assay: A375 proliferation Measured in Cell-Based System Using Plate Reader - 2084-03_Inhibitor_Dose_DryPowder_Activity. [Related pubchem assays (depositor defined):AID488944]. The assay is classed as functional. The note with it: Homo sapiens.
Assay [10] relates to Escherichia coli. In words: microbe, parasite or virus in culture.
A further assay concerns the target T5, Hexokinase HKDC1 (Homo sapiens, UniProt Q2TB90).
T5 sequence (Q2TB90 whole entry): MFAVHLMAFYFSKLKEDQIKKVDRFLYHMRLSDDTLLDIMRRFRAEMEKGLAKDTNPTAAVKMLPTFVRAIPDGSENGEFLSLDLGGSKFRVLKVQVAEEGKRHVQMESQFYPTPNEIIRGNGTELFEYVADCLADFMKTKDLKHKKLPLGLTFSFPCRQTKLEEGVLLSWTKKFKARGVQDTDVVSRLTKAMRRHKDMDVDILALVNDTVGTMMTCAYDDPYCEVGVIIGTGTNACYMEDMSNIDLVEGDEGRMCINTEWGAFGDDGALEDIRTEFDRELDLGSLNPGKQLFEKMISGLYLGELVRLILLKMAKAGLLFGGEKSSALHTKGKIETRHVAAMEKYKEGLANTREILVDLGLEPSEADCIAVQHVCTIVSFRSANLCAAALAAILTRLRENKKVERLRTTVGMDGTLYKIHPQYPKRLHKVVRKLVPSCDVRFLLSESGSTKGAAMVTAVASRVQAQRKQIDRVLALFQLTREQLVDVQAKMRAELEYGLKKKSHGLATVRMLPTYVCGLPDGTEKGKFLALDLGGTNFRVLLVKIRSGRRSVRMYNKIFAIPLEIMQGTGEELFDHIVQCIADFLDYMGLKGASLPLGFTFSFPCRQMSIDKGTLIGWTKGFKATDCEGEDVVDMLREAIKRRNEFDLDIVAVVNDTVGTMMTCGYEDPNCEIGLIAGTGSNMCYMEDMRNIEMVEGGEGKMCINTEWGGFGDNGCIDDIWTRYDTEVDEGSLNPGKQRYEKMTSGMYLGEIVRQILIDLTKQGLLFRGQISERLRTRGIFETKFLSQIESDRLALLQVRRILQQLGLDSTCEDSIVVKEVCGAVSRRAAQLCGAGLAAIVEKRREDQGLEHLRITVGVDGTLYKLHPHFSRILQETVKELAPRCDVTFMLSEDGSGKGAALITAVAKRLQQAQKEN
Briefly: inhibition of HKDC1 glucose phosphorylation – biochemical, W721R variant, dose response (AID 504729). It counts as functional.

Assay [11] deals with Escherichia coli. In words: microbe, parasite or virus in culture. The source holds these as a separate data set.

Chain of Nuclear receptor subfamily 0 group B member 1 (P51843 whole entry): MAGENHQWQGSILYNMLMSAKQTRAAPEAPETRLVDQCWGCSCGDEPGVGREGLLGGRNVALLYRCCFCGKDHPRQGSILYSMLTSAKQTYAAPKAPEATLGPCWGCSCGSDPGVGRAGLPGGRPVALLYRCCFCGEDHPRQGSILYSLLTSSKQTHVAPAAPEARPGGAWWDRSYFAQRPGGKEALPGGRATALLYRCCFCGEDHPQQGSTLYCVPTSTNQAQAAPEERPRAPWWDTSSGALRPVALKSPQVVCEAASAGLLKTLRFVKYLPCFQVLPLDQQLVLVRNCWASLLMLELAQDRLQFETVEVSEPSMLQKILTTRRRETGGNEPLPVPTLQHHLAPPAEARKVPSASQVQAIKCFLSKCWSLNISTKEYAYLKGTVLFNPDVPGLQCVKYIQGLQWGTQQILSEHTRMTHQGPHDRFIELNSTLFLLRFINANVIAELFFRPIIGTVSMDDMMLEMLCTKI

In general, IC50 refers to the concentration that inhibits the measured activity by half. As for `CNC(=O)c1ncnnc1N(C)C(=O)NCc1ccccc1`, the IC50 (in the assay on HEK293 [1]; in assay [2]) was > 67.5 µM (inactive) each time.
The term EC50 denotes the concentration at which the effect is half-maximal. `COc1ccc(Cn2nnc3c(O)nc(C(=O)NCCc4ccc(F)cc4)nc32)cc1OC`: the EC50 with HEK293 [3] and in the assay on HEK293 [4] was > 59.7 µM (inactive) throughout.
With `N=c1ccn2c(n1)O[C@H]1[C@@H](CO)[C@H](O)O[C@H]12`, the IC50 (in the assay on Jurkat; in [5]) was > 80 µM (inactive) throughout.
The term AC50 denotes the concentration at which the activity in the assay is half-maximal. Consider `CCOC(=O)c1c(C)oc2c1C(=O)c1ccccc1C2=O`, for which the EC50 at Protein RecA was 13.3 µM (active). For the same molecule, in assay [6], the 50% inhibitory concentration (IC50) is 16.1 µM (active). Further, the AC50 in assay [7] is 3.18 µM (active); in the assay with INS1, 3.7 µM (active); in assay [8], 4.44 µM (active); in [9], 6.31 µM (active); in the assay on A-375, 41.9 µM (active).
As for `CCC(C)C(N)C1=NC(C(=O)N[C@@H](CC(C)C)C(=O)N[C@H](CCC(=O)[O-])C(=O)N[C@H](C(=O)N[C@H]2CCCCNC(=O)[C@H](CC(N)=O)NC(=O)[C@@H](CC(=O)[O-])NC(=O)[C@H](Cc3c[nH]cn3)NC(=O)[C@@H](Cc3ccccc3)NC(=O)[C@H]([C@@H](C)CC)NC(=O)[C@@H](CCCN)NC2=O)[C@@H](C)CC)CS1.[Zn+2]` (stereo partly specified) (X1-L[dE]IK[dOrn]I[dF]H[dD]N; lactam 4-C), the values for the AC50 with Escherichia coli [10] and in the assay on Escherichia coli [11] were 38 µM (active) and 184 µM (active), respectively. Besides, the IC50 on Hexokinase HKDC1 is 2.69 µM (active).
